# According to patent US6630478B2, “Methods for treatment of drug-induced peripheral neuropathy” (NeoTherapeutics, Inc., priority 2000, dated 2003):
# Entries after “also recorded” stand apart in the source; their conditions may differ.
# Experiments:
# [1] = test system: dorsal root ganglion neurons; assay: Cisplatin toxicity in cultured dorsal root ganglion neurons, survival rate by acid phosphatase activity; assay type: cell-based, rat
# Protocol: The dorsal root ganglion neurons were obtained from rat fetuses (Wistar rats; E15; Elevage Janvier, Le Genest St Isle). They were dissected and incubated in trypsin 1× (Gibco; Life Technologies, Cergy-Pontoise, France) for 30 min at 37° C. The reaction was stopped by addition of free Hanks balanced salt solution containing calcium and magnesium; (HBSS^+; Gibco) added with 10% of fetal bovine serum (FBS; Gibco) and 0.5 mg/ml DNAse I (Boehringer Mannheim, Meylan, France). The suspension was triturated with a 10-ml pipette and using a needle seringe. After centrifugation, the dissociated cells were resuspended in DMEM containing 10% FBS, 2% of chick embryos extract (Gibco), 1% antibiotics (Gibco) and NGF (Tebu, Le Perray en Yvelines, France) 3 ng/ml final.
# Viable cells were counted and seeded at ±50,000 cells /well in 96 well-plates (Nunclon, Life Technologies) coated with poly-L-lysine (0.01 mg/ml, Sigma). Cells were maintained in a humidified incubator at 37° C. in 5% CO2-95% air atmosphere.
# After 24 h, the culture medium was completed with anti-mitotic compounds (5-fluoro-5′-deoxyuridine and cytosine β-D-arabinofuranoside) and uridine all 10^−5M final. This treatment is aimed at eliminating contaminating fibroblasts and inhibiting the proliferation of Schwann cells.
# Cultures were rinsed 48 hrs later (medium without any growth factors) and medium was replaced with fresh medium (200 μl /well) containing cisplatin (3.5 ng/ml; Sigma) added or not with the reference or test compounds.
# After 48 h of intoxication, survival rates were measured using an acid phosphatase enzymatic activity assay.
# Acid phosphatase activity was measured according to a previously described method (Ueda et al.; 1994). After removal of the culture medium, wells were rinsed twice with PBS (Life Technologies) and incubated with 100 μl of buffer containing 0.1 M sodium acetate (pH5.5), 0.1% Triton X100 (Sigma) and 10 mM p-nitrophenyl phosphate (Sigma) 1 h at 37° C./5% CO2. Reaction was stopped by addition of 10 μl of 1N NaOH (LPCR, Strasbourg, France). Enzyme activity was measured at 405 nm in a microplate reader (Labsystem, France).
# Acid phosphatase activity is proportional to the amount of living cells. The results were expressed as percentage O.D. as compared to control conditions (same rinsing and medium replacements, but no intoxication and no treatment with either NGF, riluzol or the test compounds).
# [2] = test system: Caudal nerve; assay: Vincristine-induced neuropathy, sensitive nerve conduction velocity (SNCV); assay type: in vivo, Dark Agouti rats
# Protocol: (§1) Animals received vincristine 0.15 mg/ml (IP) per day with the following timing: 5 days of intoxication followed with 2 days without vincristine injection and a new period of 5 days of intox followed with 2 days no intoxication and 2 other days of intoxication with vincristine followed by a 3 week recovery period. The test compound was administered daily from the first day of vincristine injection to the end of the experiments
# (§2) Subjects used were 65 female Dark Agouti rats (200-250 g) (n=13 per group). Five groups were used: (1) a vehicle control group; (2) a vincristine-vehicle group;: (3) a vicristine+AIT-082 3 mg/kg IP group; (4) a vicristine+AIT-082 10 mg/kg IP group; and (5) a vicristine+AIT-082 30 mg/kg IP group.
# (§3) Electrophysiological Measurements. Electrophysiological recordings were performed once a week using a Neuromatic 2000M electromyographical apparatus (Dantec, France). EMG were performed under Ketamine anesthesia (Imalgène 500®, Merieux, France).
# (§4) The measured parameters were: the sensitive nerve conduction velocity (SNCV), the amplitude and the latency compound muscle action potential (CMAP).
# Sensitive Nerve Conduction Velocity. Skin electrodes were used. Caudal nerve was stimulated with a series of 20 pulses during 0.2 ms at a supramaximal intensity. The mean of 20 stimulations is included for statistical analysis.
# Drug Administration. The test compound was administered daily by the i.p. route from the first day of intoxication with the vincristine to the end of the experiments.
# [3] = test system: gastrocnemius muscle after stimulation of the sciatic nerve; assay: Vincristine-induced neuropathy, EMG amplitude (compound muscle action potential); assay type: in vivo, Dark Agouti rats
# Protocol: as §1, §2, §3, §4
# Compound Muscle Action Potential and Distal Latency. CPAM was measured in gastrocnemius muscle after stimulation of the sciatic nerve. […] The amplitude (mV) and the latency of the response (ms) are measured. […]
# [4] = test system: sciatic nerve; assay: Vincristine-induced neuropathy, morphometric analysis of sciatic nerve; assay type: in vivo, Dark Agouti rats; conditions: end of the treatment periods
# Protocol: as §1, §2
# Morphometric Analysis. The morphometric analysis was performed on 3 animals per group on sciatic nerve. It includes the measurements of various parameters according to the following procedure: […]
# (3) Morphometric analysis: Sections were observed using an optical microscope (Nikon) and morphometric analysis were performed with a semi-automated digital image analysis software (Morphonerf, Alcatel). Per slice, 4 fields were analyzed, the number of myelinated fibers, density of fibers, diameter of fibers, thickness of myelin sheath, surface of myelin sheath and G factor.
# [5] = test system: BDNF; assay: BDNF content in spinal cord by ELISA; assay type: in vivo, rat; conditions: in drinking water for 7 days
# Protocol: In vivo Effects on Expression and Secretion of Nerve Growth Factors: In attempt to further explore the effects of AIT-082 that could be beneficial for chemotherapy-induced neuropathy, additional studies were conducted on dose-related effects on BDNF levels in the spinal cord. In these studies, AIT-082 was administered in drinking water for 7 days and BDNF content was measured by ELISA assay.
# [6] = test system: peripheral nerve sprouting in the skin; assay: Peripheral (collateral) nerve sprouting in the skin; assay type: in vivo; conditions: systemically administered, skin of adult rats
# Text: (§5) The growth of such nerve tissue is evoked and maintained entirely by the increased levels of NGF in adjacent denervated skin.
# [7] = test system: axonal regeneration; assay: Axonal regeneration after nerve crush; conditions: in vivo
# Text: (§6) More specifically, as detailed below in the Example, systematically administered AIT-082 closely mimics the effects both of increased levels of endogenous NGF, and of exogenous NGF. […] The growth of such nerve tissue is evoked and maintained entirely by the increased levels of NGF in adjacent denervated skin.
# [8] = Induction of hyperalgesia; parameters: species or system adult rats; conditions: rat, in vivo
# Text: as §5
# [9] = test system: NGF; assay: Endogenous NGF levels in skin; parameters: species or system adult rats; conditions: rat, in vivo
# Text: as §6
# [10] = Clinical trials, safety in patients; assay type: in vivo; conditions: over 1400 patients
# Text: The objectives of the studies described in this application are to evaluate AIT-082 and related analogues for their potential utility in the treatment of neuropathies associated with oncolytic therapies. The prototypic compound, AIT-082, is currently in Phase 2 clinical trials for Alzheimer's disease (AD) and has been proven safe in over 1400 patients. Its preclinical pharmacological effects include neuroprotection against excitotoxicity, induction of the synthesis and secretion of neurotrophic and pleiotrophic factors, neuroregenerative effects and proliferative effects on neural progenitor cells. The effects of AIT-082 are unlike any product that has been approved or is currently under evaluation for neuropathies associated with oncolytic agents. AIT-082 and its second generation analogues may arrest or retard neurodegenerative processes, promote neuroregeneration and provide symptomatic relief for cancer patients with neuropathies or at high risk of developing neuropathies.
# [11] = test system: NGF; conditions: rat astrocyte cultures; cited from earlier work
# [12] = test system: basic fibroblast growth factor (bFGF); conditions: rat astrocyte cultures; cited from earlier work
# [13] = test system: neurotrophin 3 (NT-3); conditions: rat astrocyte cultures; cited from earlier work
# [14] = test system: NGF; conditions: astrocytes; cited from earlier work
# [15] = test system: TGF; conditions: astrocytes; cited from earlier work
# [16] = test system: S 100; conditions: astrocytes; cited from earlier work
# [17] = Vincristine intoxication in rats, body weight; assay type: in vivo, Dark Agouti rats; conditions: repetitive dosing IP, days 11-19 and 22-31; FIG. 2
# Protocol: Animals received vincristine 0.15 mg/ml (IP) per day with the following timing: 5 days of intoxication followed with 2 days without vincristine injection and a new period of 5 days of intox followed with 2 days no intoxication and 2 other days of intoxication with vincristine followed by a 3 week recovery period. The test compound was administered daily from the first day of vincristine injection to the end of the experiments Subjects used were 65 female Dark Agouti rats (200-250 g) (n=13 per group). Five groups were used: (1) a vehicle control group; […] (3) a […]-082 3 mg/kg IP group; (4) a […]-082 10 mg/kg IP group; and (5) a […]-082 30 mg/kg IP group. Behavioral Measurements. The general health and weight of animals were checked every day. Sensorimotor tests were performed twice a week during 6 week study, starting one week before beginning of intoxication (baseline). Drug Administration. The test compound was administered daily by the i.p. route from the first day of intoxication with the vincristine to the end of the experiments.
# [18] = prevention of cisplatin toxicity in DRG cells
smiles,measurement,setting,value
O=C(CCn1cnc2c(=O)[nH]cnc21)NCCCN1CCCC1=O [AIT-034],effect on survival,[1]; all concentrations (0.01-100 μM),ineffective
"O=C(CCn1cnc2c(=O)[nH]cnc21)Nc1ccc(C(=O)O)cc1 [AIT-082, N-4-carboxyphenyl-3-(6-oxohydropurin-9-yl) propanamide]",survival compared to cisplatin alone,"[1]; 1 μM, cisplatin intoxication 48 h, FIG. 1",significantly increased survival
same,effect on survival at higher doses,[1]; doses higher than 1 μM,diminished progressively
same,protection against cisplatin induced neurotoxicity,"[1]; in vitro model, discussion summary",statistically significant protection
same,effect compared with 5 ng/ml of NGF,[1]; [18],greater effect
same,potency relative to riluzole,[1]; [18],10 times
same,sensory nerve conduction velocity,"[2]; day 17 (intoxication phase) and day 31 (recovery phase), 3-30 mg/kg IP",significant and dose-related changes
same,severity of vincristine induced changes in sensory nerve conduction velocity,[2]; discussion summary,reduced the severity
same,rate of recovery after the termination of vincristine therapy,"[2]; discussion summary, SNCV and electromyographic responses",improved the rate of recovery
same,EMG amplitude,"[3]; days 17 and 23 (intoxication phase), days 31 and 38 (recovery phase), 3-30 mg/kg IP",significant and dose-related changes
same,severity of vincristine induced changes in electromyographic responses,[3]; discussion summary,reduced the severity
same,number of myelinated nerve fibers in sciatic nerve biopsies versus vincristine alone,[4],greater numbers of myelinated nerve fibers
same,BDNF levels in the spinal cord,[5],significant dose-related increases
same,peripheral / collateral nerve sprouting,[6],induce peripheral nerve sprouting; also recorded: induces vigorous collateral sprouting
same,axonal regeneration after nerve crush,[7],no effect
same,hyperalgesia,[8],without the induction of hyperalgesia; also recorded: did not induce hyperalgesia
same,endogenous NGF levels in skin,[9],up-regulation
same,safety in patients,[10],proven safe
same,production of NGF mRNA,[11],increases the production of mRNAs
same,production of bFGF mRNA,[12],increases the production of mRNAs
same,production of NT-3 mRNA,[13],increases the production of mRNAs
same,secretion of NGF into the culture medium,[14],enhanced the secretion
same,secretion of TGF into the culture medium,[15],enhanced the secretion
same,secretion of S 100 into the culture medium,[16],enhanced the secretion
"CC[C@]1(O)C[C@H]2CN(CCc3c([nH]c4ccccc34)[C@@](C(=O)OC)(c3cc4c(cc3OC)N(C=O)[C@H]3[C@@](O)(C(=O)OC)[C@H](OC(C)=O)[C@]5(CC)C=CCN6CC[C@]43[C@@H]65)C2)C1 [Vincristine, vincristine]",body weight compared to day matched vehicle controls,[17],significant reductions in body weight
